Each structure is given as a SMILES string.

Results on one compound are retold here after patent US8207136B2, “Nucleoside compounds and methods of use thereof” (The Board of Trustees of the University of Illinois, priority 2005, dated 2012).

Test [1] deals with leukemia cell lines CEM, HL-60, NB4 and U937. The test can be described thus: TMRE staining and flow cytometry of leukemia cells. In kind it is cell-based. The note with it: 5 μM, 24 hours. As for the experimental part: FIG. 7. ARC induces mitochondrial injury in leukemia cells. Different leukemia cells were either treated with DMSO (gray) or 5 μM ARC (white) for 24 hours, stained with TMRE (tetramethyl rhodamine ethyl ester) and subjected to flow cytometry. CEM cells are shown in panel (A), HL-60 in panel (B), NB4 in panel (C) and U937 in panel (D). The shift in the peak from right (DMSO; gray) to left (ARC-treated; white) is due to the lower intake of the dye caused by the loss in mitochondrial potential.
(§1) In order to further probe the mechanism of ARC-induced apoptosis, whether or not ARC causes mitochondrial injury was investigated. Permeabilization of mitochondria, followed by cytochrome c release has previously been observed for transcriptional inhibitor flavopiridol. For this analysis, leukemia cell lines CEM, HL-60, NB4 and U937 were treated with either DMSO or ARC. […] It is well known that the Bcl2 family members (eg., Bcl-2, Bcl-XL, Mcl-1) protect the mitochondrial integrity, thereby acting in an anti-apoptotic manner. It is possible that ARC modulates the expression of one or more of these proteins to cause mitochondrial injury.
Background: In flow cytometry, cells or beads pass a laser one at a time.

The target of another test is T1, P-TEFb (Cdk9/Cyclin T1) (Homo sapiens, UniProt P50750).
T1 construct: gift from Dr. Nekhai (Howard University)
The test can be described thus: P-TEFb kinase assay with GST-CTD as substrate. In kind it is biochemical. The note with it: 30° C., 1 hour. As for the experimental part: Purified P-TEFb (Cdk9/Cyclin T1) protein and GST-CTD (GST-tagged C-terminal domain of RNA polymerase II) expression plasmid were gifts from Dr. Nekhai (Howard University). GST-CTD protein was expressed in BL21 E. coli (Stratagene) and purified using a GST protein purification kit (Amersham Biosciences). The kinase assay was performed at 30° C. for 1 hour in the presence of P-TEFb with or without the addition of ARC. The phosphorylation levels of GST-CTD were detected with anti-phospho RNA polymerase II antibody (4735; Cell Signaling).
It is known that DRB and flavopiridol inhibit transcription by blocking the kinase activity of P-TEFb, which in turn leads to decreased phosphorylation of RNA polymerase II C-terminal domain (CTD). To determine if ARC operates by a similar mechanism, a kinase assay was performed with purified P-TEFb using GST-CTD (GST tagged C-terminal domain of RNA polymerase II) as the substrate. […] To evaluate this effect in vivo, HCT-116 cells were treated with ARC for 3 hours and analyzed levels of phospho-RNA polymerase II by immunoblotting. While the total amount of RNA polymerase II remained unchanged, phosphorylation of the RNA polymerase II CTD decreased upon ARC treatment (FIG. 2D), consistent with the in vitro kinase assay.

Another test has as its system Mcl-1, Bcl-2. The test can be described thus: Immunoblot of Bcl-2 and Mcl-1 levels. In kind it is cell-based. The method, then:
FIG. 8. ARC downregulates Mcl-1 levels in different cancer cells. (A) U937 leukemia cells were treated with different concentrations of ARC as indicated for 24 hours and the cell lysates were probed for Mcl-1 levels. (B) Neuroblastoma cell lines were treated either with DMSO or 1 μM ARC for 24 hours and levels of Mcl-1 were assessed by immunoblotting.
as §1
A general note: Immunoblotting shows a protein as a band on a membrane.

The subject of the next test is HUVECs. The test can be described thus: Proliferation inhibition assay. The note with it: Homo sapiens, HUVEC; 10 ng/ml VEGF, 24, 48 or 72 hours, average from two trials; read-out: IC50, HUVEC growth. In kind it is cell-based. As for the experimental part:
Different angiogenesis assays such as cord formation assay, motility assay and proliferation inhibition assay were performed at the developmental therapeutics program (DTP) branch of NCI (NCI/DTP) as described. HUVECs were used for all the assays. Taxol and TNP-470 were used as positive control for the assays.
For proliferation inhibition assay, HUVECs were grown in the absence of growth factors for 24 hours and then stimulated with 10 ng/ml VEGF and were treated with either DMSO or different concentrations of ARC for 24 hours, 48 hours or 72 hours.

The target of a further test is T2, RNA polymerase II (Homo sapiens, UniProt P24928).
T2 construct: nuclei were isolated from normally growing untreated HCT-116 cells and treated with each of these agents; endogenous in cells; host or cells: nuclei of HCT-116 colon cancer cells
Description: Nuclear run-on assay, nuclei isolated from untreated HCT-116 cells then treated. In kind it is biochemical. The conditions noted are these: 50 μM ARC, 50 μM DRB or 2 μg/ml α-amanitin. The method, then:
Run-on assays with isolated nuclei were performed as described. Briefly, cells treated with the indicated agents were lysed with hypotonic buffer (10 mM Tris-HCl pH 7.4, 10 mM NaCl and 35 mM MgCl2) and nuclei collected by centrifugation and resuspended in nuclear storage buffer (50 mM HEPES pH 8.0, 5 mM MgCl2, 0.5 mM DTT, 1 mg/ml BSA and 25% (v/v) glycerol) at about 5×10^8 nuclei/ml and stored at −80° C. Transcription reactions were performed in 200 μl volume consisting of 1×10^7 nuclei in the presence of 0.12 M KCl, 7 mM Mg(Ac)2, 25 μCi of [^32P]GTP, 500 μM ATP, UTP and CTP at 30° C. Samples were collected at various time points (18 μl/time point—0, 5, 10, 20 and 30 min) and the reaction terminated by the addition of 57 μl of Sarkosyl solution (1% Sarkosyl, 0.1 M Tris pH 8.0, 0.1 M NaCl, 10 mM EDTA and 200 μg/ml tRNA). The stopped reactions were transferred to Whatman DE81 paper, and washed four times with wash buffer (5% K2HPO4 and 0.3% Na4P2O7) for 10 min, followed by a 5-min water wash. Then the paper was briefly rinsed with 95% ethanol and allowed to dry completely. Radiation was quantitated using a liquid scintillation counter.
In order to evaluate the ability of ARC to bind to and inhibit RNA polymerase II directly (like α-amanitin) or indirectly (like DRB), nuclei were isolated from normally growing untreated HCT-116 cells and treated with each of these agents, and then assayed for rate of transcription by nuclear run-on assay.

T1 sequence (P50750 whole entry, species assumed): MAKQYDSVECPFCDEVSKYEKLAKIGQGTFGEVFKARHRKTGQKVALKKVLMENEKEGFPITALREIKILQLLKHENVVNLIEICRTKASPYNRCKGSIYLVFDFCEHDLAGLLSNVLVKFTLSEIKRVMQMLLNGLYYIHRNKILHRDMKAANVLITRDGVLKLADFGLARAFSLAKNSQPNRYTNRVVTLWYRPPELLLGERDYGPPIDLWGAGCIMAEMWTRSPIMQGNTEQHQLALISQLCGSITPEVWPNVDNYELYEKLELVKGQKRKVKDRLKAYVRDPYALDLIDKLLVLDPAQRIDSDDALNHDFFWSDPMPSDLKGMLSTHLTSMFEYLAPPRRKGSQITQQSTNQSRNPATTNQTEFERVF
T1 sequence (O60563 whole entry partner, species assumed): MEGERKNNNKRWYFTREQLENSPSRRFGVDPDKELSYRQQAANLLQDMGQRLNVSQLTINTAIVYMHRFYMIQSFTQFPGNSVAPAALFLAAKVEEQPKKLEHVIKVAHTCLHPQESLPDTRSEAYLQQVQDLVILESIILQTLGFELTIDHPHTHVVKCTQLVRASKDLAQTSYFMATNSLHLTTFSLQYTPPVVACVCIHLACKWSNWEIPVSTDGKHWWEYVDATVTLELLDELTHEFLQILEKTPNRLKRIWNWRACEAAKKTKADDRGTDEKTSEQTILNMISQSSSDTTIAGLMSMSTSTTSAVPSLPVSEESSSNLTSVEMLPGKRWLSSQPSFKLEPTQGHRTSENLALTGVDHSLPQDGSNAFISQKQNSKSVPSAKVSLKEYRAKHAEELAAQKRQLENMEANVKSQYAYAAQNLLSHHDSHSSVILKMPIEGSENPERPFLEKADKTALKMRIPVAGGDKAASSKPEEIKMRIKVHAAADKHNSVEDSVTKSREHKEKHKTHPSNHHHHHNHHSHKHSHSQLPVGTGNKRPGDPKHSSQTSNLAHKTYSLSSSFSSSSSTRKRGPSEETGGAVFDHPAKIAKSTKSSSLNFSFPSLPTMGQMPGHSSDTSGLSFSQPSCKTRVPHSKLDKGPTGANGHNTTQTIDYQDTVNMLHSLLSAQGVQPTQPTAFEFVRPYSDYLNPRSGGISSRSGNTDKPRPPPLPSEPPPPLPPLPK

For `NNc1c(C(N)=O)c2c(N)ncnc2n1[C@@H]1O[C@H](CO)[C@@H](O)[C@H]1O` [ARC, 4-amino-6-hydrazino-7-beta-D-ribofuranosyl-7H-pyrrolo[2,3-d]-pyrimidine-5-carboxamide], the “mitochondrial potential (TMRE)” value in test [1] is on record as “mitochondrial depolarization”. Besides, the “phosphorylation of GST-CTD by P-TEFb” value on P-TEFb (Cdk9/Cyclin T1) is on record as “potently decreased the phosphorylation of GST-CTD”. In addition, in the test on Mcl-1, Bcl-2 (U937 leukemia and neuroblastoma cell lines, 24 hours), the Mcl-1 levels entry was “drastically reduced”. In addition, the Bcl-2 levels entry in the test on Mcl-1, Bcl-2 (data not shown) is on record as “no changes in the levels of Bcl-2”. For the same compound, the IC50 in the test on HUVECs is ~47 nM. Besides, the “rate of transcription, agent added to isolated nuclei” value at RNA polymerase II is recorded as “did not affect the rate of transcription”.

One may read the IC50 as the concentration needed to halve the response being measured.
